Laboratory results: patent publication US11091488B2 (MISSION THERAPEUTICS LIMITED, priority 2015, dated 2021)

Biological target: USP30 (Homo sapiens (Human), UniProt Q70CQ3)
Test: USP30 biochemical IC50 assay
Conditions: read-out: IC50 range; fluorescence polarisation, TAMRA labelled peptide linked to ubiquitin; 30 min pre-incubation, read after 2 hr
Description: USP30 Biochemical IC50 Assay
Dilution plates were prepared at 21 times the final concentration (2100 μM for a final concentration of 100 μM) in 50% DMSO in a 96-well polypropylene V-bottom plate (Greiner #651201). A typical 8-point dilution series to be 100, 30, 10, 3, 1, 0.3, 0.1, 0.03 μM final. Reactions were performed in duplicate in black 384 well plates (small volume, Greiner 784076) in a final reaction volume of 21 μl. Either 1 μl of 50% DMSO or diluted compound was added to the plate. USP30 was diluted in reaction buffer (40 mM Tris, pH 7.5, 0.005% Tween 20, 0.5 mg/ml BSA, 5 mM—beta-mercaptoethanol) to the equivalent of 0.05 μl/well and 10 μl of diluted USP30 was added to the compound. Enzyme and compound were incubated for 30 min at room temp. Reactions were initiated by the addition of 50 nM of TAMRA labelled peptide linked to ubiquitin via an iso-peptide bond as fluorescence polarisation substrate. Reactions were read immediately after addition of substrate and following a 2 hr incubation at room temperature. Readings were performed on a Pherastar Plus (BMG Labtech). λ Excitation 540 nm; λ Emission 590 nm.

Chain of USP30 (Q70CQ3 57-517): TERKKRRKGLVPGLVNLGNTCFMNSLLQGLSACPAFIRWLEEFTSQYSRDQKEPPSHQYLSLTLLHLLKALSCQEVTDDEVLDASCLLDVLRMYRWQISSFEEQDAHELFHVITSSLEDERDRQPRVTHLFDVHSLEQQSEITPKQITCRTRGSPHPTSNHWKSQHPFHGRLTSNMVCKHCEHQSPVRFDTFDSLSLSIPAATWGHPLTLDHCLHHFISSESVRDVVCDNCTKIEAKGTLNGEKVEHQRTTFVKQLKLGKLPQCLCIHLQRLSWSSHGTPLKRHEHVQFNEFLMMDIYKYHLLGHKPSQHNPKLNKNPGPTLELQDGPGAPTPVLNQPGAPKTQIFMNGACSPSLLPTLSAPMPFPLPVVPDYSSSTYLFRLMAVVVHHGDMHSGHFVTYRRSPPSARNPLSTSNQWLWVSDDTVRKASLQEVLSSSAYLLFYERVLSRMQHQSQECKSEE

Row | Structure (SMILES) | IC50 [nM]
1 | N#CN1CC[C@H](N2CCN(c3cccc(-c4ccno4)c3)S2(=O)=O)C1 [Example 1, (S)-3-(5-(3-(isoxazol-5-yl)phenyl)-1,1-dioxido-1,2,5-thiadiazolidin-2-yl)pyrrolidine-1-carbonitrile] | 100 to 1000
2 | N#CN1CC[C@@H](N2CCN(c3ccc4c(c3)OCC(=O)N4)S2(=O)=O)C1 [Example 3, (R)-3-(1,1-dioxido-5-(3-oxo-3,4-dihydro-2H-benzo[b][1,4]oxazin-7-yl)-1,2,5-thiadiazolidin-2-yl)pyrrolidine-1-carbonitrile] | 100 to 1000
3 | N#CN1CC[C@@H](N2CCN(c3ccc4c(c3)N(CCO)C(=O)CO4)S2(=O)=O)C1 [Example 6, (R)-3-(5-(4-(2-hydroxyethyl)-3-oxo-3,4-dihydro-2H-benzo[b][1,4]oxazin-6-yl)-1,1-dioxido-1,2,5-thiadiazolidin-2-yl)pyrrolidine-1-carbonitrile] | 100 to 1000
4 | COc1ccc(N2CCN([C@@H]3CCN(C#N)C3)S2(=O)=O)cc1N1CCOCC1 [Example 8, (R)-3-(5-(4-methoxy-3-morpholinophenyl)-1,1-dioxido-1,2,5-thiadiazolidin-2-yl)pyrrolidine-1-carbonitrile] | 100 to 1000
5 | N#CN1CC[C@@H](N2CCN(C3CCN(c4ccccn4)C3)S2(=O)=O)C1 (stereo partly drawn) [Example 9, (3R)-3-(1,1-dioxido-5-(1-(pyridin-2-yl)pyrrolidin-3-yl)-1,2,5-thiadiazolidin-2-yl)pyrrolidine-1-carbonitrile] | 100 to 1000
6 | N#CN1CC[C@@H](N2CCCN(c3ccc(-c4ccccc4)cc3)S2(=O)=O)C1 [Example 12, (R)-3-(6-([1,1′-biphenyl]-4-yl)-1,1-dioxido-1,2,6-thiadiazinan-2-yl)pyrrolidine-1-carbonitrile] | 100 to 1000
7 | N#CN1CC[C@@H](N2CCCN(c3cccc(-c4ccccc4)c3)S2(=O)=O)C1 [Example 14, (R)-3-(6-([1,1′-biphenyl]-3-yl)-1,1-dioxido-1,2,6-thiadiazinan-2-yl)pyrrolidine-1-carbonitrile] | 100 to 1000
8 | COc1ccc(-c2ccccc2)cc1N1CCN([C@@H]2CCN(C#N)C2)S1(=O)=O [Example 15, (R)-3-(5-(4-methoxy-[1,1′-biphenyl]-3-yl)-1,1-dioxido-1,2,5-thiadiazolidin-2-yl)pyrrolidine-1-corbonitrile] | < 100
9 | COc1ccccc1-c1ccc(N2CCN([C@@H]3CCN(C#N)C3)S2(=O)=O)cc1 [Example 17, (R)-3-(5-(2′-methoxy-[1,1′-biphenyl]-4-yl)-1,1-dioxido-1,2,5-thiadiazolidin-2-yl)pyrrolidine-l-carbonitrile] | < 100
10 | Cn1cc(-c2cccc(N3CCN([C@@H]4CCN(C#N)C4)S3(=O)=O)c2)cn1 [Example 20, (R)-3-(5-(3-(1-methyl-1H-pyrazol-4-yl)phenyl)-1,1-dioxido-1,2,5-thiadiazolidin-2-yl)pyrrolidine-1-corbonitrile] | < 100
11 | Cn1cc(-c2cccc(N3CCCN([C@@H]4CCN(C#N)C4)S3(=O)=O)c2)cn1 [Example 21, (R)-3-(6-(3-(1-methyl-1H-pyrazol-4-yl)phenyl)-1,1-dioxido-1,2,6-thiadiazinan-2-yl)pyrrolidine-1-carbonitrile] | 100 to 1000
12 | N#CN1CC[C@@H](N2CCN(c3ccc(N4CCOCC4)cc3)S2(=O)=O)C1 [Example 22, (R)-3-(5-(4-morpholinophenyl)-1,1-dioxido-1,2,5-thiadiazolidin-2-yl)pyrrolidine-1-carbonitrile] | 100 to 1000
13 | N#CN1CC[C@@H](N2CCCN(c3cccc(N4CCOCC4)c3)S2(=O)=O)C1 [Example 25, (R)-3-(6-(3-morpholinophenyl)-1,1-dioxido-1,2,6-thiadiazinan-2-yl)pyrrolidine-1-carbonitrile] | 1000 to 10000
14 | N#CN1CC[C@@H](N2CCN(c3cc(-c4ccccc4)no3)S2(=O)=O)C1 [Example 26, (R)-3-(1,1-dioxido-5-(3-phenylisoxazol-5-yl)-1,2,5-thiadiazolidin-2-yl)pyrrolidine-1-carbonitrile] | < 100
15 | N#CN1CC[C@@H](N2CCCN(c3cc(-c4ccccc4)no3)S2(=O)=O)C1 [Example 27, (R)-3-(1,1-dioxido-6-(3-phenylisoxazol-5-yl)-1,2,6-thiadiazinan-2-yl)pyrrolidine-1-carbonitrile] | 100 to 1000
16 | N#CN1CC[C@@H](N2CCN(c3cc(-c4ccccc4)n[nH]3)S2(=O)=O)C1 [Example 28, (R)-3-(1,1-dioxido-5-(3-phenyl-1H-pyrazol-5-yl)-1,2,5-thiadiazolidin-2-yl)pyrrolidine-1-carbonitrile] | < 100
17 | N#CN1CC[C@@H](N2CCCN(c3cc(-c4ccccc4)n[nH]3)S2(=O)=O)C1 [Example 29, (R)-3-(1,1-dioxido-6-(3-phenyl-1H-pyrazol-5-yl)-l,2,6-thiadiazinan-2-yl)pyrrolidine-1-carbonitrile] | 100 to 1000

Next, values leading:

Row | IC50 [nM] | Structure (SMILES)
18 | < 100 | CN1C(=O)COc2cc(N3CCN([C@@H]4CCN(C#N)C4)S3(=O)=O)ccc21 [Example 2, (R)-3-(5-(4-methyl-3-oxo-3,4-dihydro-2H-benzo[b][1,4]oxazin-7-yl)-1,1-dioxido-1,2,5-thiadiazolidin-2-yl)pyrrolidine-1-carbonitrile]
19 | < 100 | N#CN1CC[C@@H](N2CCN(c3ccc4c(c3)NC(=O)CO4)S2(=O)=O)C1 [Example 5, (R)-3-(1,1-dioxido-5-(3-oxo-3,4-dihydro-2H-benzo[b][1,4]oxazin-6-yl)-1,2,5-thiadiazolidin-2-yl)pyrrolidine-1-carbonitrile]
20 | < 100 | COc1ccccc1-c1cccc(N2CCN([C@@H]3CCN(C#N)C3)S2(=O)=O)c1 [Example 10, (R)-3-(5-(2′-methoxy-[1,1′-biphenyl]-3-yl)-1,1-dioxido-1,2,5-thiadiazolidin-2-yl)pyrrolidine-1-carbonitrile]
21 | < 100 | N#CN1CC[C@@H](N2CCN(c3ccc(-c4ccccc4)cc3)S2(=O)=O)C1 [Example 11, (R)-3-(5-([1,1′-biphenyl]-4-yl)-1,1-dioxido-1,2,5-thiadiazolidin-2-yl)pyrrolidine-1-carbonitrile]
22 | < 100 | N#CN1CC[C@@H](N2CCN(c3cccc(-c4ccccc4)c3)S2(=O)=O)C1 [Example 13, (R)-3-(5-([1,1′-biphenyl]-3-yl)-1,1-dioxido-1,2,5-thiadiazolidin-2-yl)pyrrolidine-1-carbonitrile]
23 | < 100 | COc1cccc(-c2cccc(N3CCN([C@@H]4CCN(C#N)C4)S3(=O)=O)c2)c1 [Example 16, (R)-3-(5-(3′-methoxy-[1,1′-biphenyl]-3-yl)-1,1-dioxido-1,2,5-thiadiazolidin-2-yl)pyrrolidine-1-carbonitrile]
24 | < 100 | N#CN1CC[C@@H](N2CCN(c3ccc(-c4ccncc4)cc3)S2(=O)=O)C1 [Example 18, (R)-3-(1,1-dioxido-5-(4-(pyridin-4-yl)phenyl)-1,2,5-thiadiazolidin-2-yl)pyrrolidine-1-carbonitrile]
25 | < 100 | N#CN1CC[C@@H](N2CCN(c3cccc(-c4ccncc4)c3)S2(=O)=O)C1 [Example 19, (R)-3-(1,1-dioxido-5-(3-(pyridin-4-yl)phenyl)-1,2,5-thiadiazolidin-2-yl)pyrrolidine-1-carbonitrile]
26 | < 100 | N#CN1CC[C@@H](N2CCN(c3cccc(N4CCOCC4)c3)S2(=O)=O)C1 [Example 24, (R)-3-(5-(3-morpholinophenyl)-1,1-dioxido-1,2,5-thiadiazolidin-2-yl)pyrrolidine-1-carbonitrile]
